From patent US4132846A
Values after ≈ are worked out from the molar mass of the structure shown. Where two headings read alike, the source gives them in different places.

Columns and labels:
Escherichia coli KY 8327 [1] = assay: MIC, agar dilution method at pH 7.2; type: cell-based; settings: KY8327, Escherichia coli KY 8327 (produces gentamicin adenyltransferase), read-out: Minimum Inhibitory Concentration
Source text: (§1) Anti-bacterial Spectrum (Minimum Inhibitory Concentration, mcg/ml)
^1 produces gentamicin adenyltransferase

[2] = system: Pseudomonas aeruginosa KY 8512; assay: MIC, agar dilution method at pH 7.2; type: cell-based; settings: KY8512, Pseudomonas aeruginosa KY 8512 (neomycin-kanamycin phosphotransferase Type I and II, streptomycin phosphotransferase), read-out: Minimum Inhibitory Concentration
Source text: as §1
^7 produces neomycin-kanamycin phosphotransferase Type I and Type II
and streptomycin phosphotransferase

[3] = system: Staphylococcus aureus ATC 6538P; assay: MIC, agar dilution method at pH 8.0; type: cell-based; settings: ATC6538P
Escherichia coli KY 8348 [4] = assay: MIC, agar dilution method at pH 8.0; type: cell-based; settings: KY8348, Escherichia coli KY 8348 (produces gentamicin acetyltransferase Type I), read-out: minimum Inhibitory Concentration
Source text: (§2) The former bacterium inactivates kanamycins and gentamicins by adenylation, and the latter inactivates gentamicins by acetylation.

Escherichia coli KY 8327 [5] = assay: MIC, agar dilution method at pH 8.0; type: cell-based; settings: KY8327, Escherichia coli KY 8327 (produces gentamicin adenyltransferase), read-out: minimum Inhibitory Concentration
Source text: as §2

Escherichia coli KY 8348 [6] = assay: MIC, agar dilution method at pH 7.2; type: cell-based; settings: KY8348, Escherichia coli KY 8348 (gentamicin acetyltransferase Type I), read-out: Minimum Inhibitory Concentration
Escherichia coli KY 8349 = assay: MIC, agar dilution method at pH 7.2; type: cell-based; settings: KY8349, Escherichia coli KY 8349 (neomycin-kanamycin phosphototransferase Type I), read-out: Minimum Inhibitory Concentration
Source text: ^4 produces neomycin-kanamycin phosphototransferase Type I

[7] = system: Salmonella typhosa ATCC 9992; assay: MIC, agar dilution method at pH 8.0; type: cell-based; settings: Salmonella enterica, pH 8, read-out: minimum Inhibitory Concentration
Escherichia coli ATC 26 = assay: MIC, agar dilution method at pH 8.0; type: cell-based; settings: ATC26, read-out: minimum Inhibitory Concentration
[8] = system: Pseudomonas aeruginosa KY 8510; assay: MIC, agar dilution method at pH 7.2; type: cell-based; settings: KY8510, Pseudomonas aeruginosa KY 8510 (kanamycin acetyltransferase), read-out: Minimum Inhibitory Concentration
Providencia sp. 164 = assay: MIC, agar dilution method at pH 7.2; type: cell-based; settings: Providencia sp. 164 (gentamicin acetyltransferase Type II), read-out: Minimum Inhibitory Concentration
[9] = system: Pseudomonas aeruginosa KY 8511; assay: MIC, agar dilution method at pH 7.2; type: cell-based; settings: KY8511, Pseudomonas aeruginosa KY 8511 (gentamicin acetyltransferase Type I and neomycin-kanamycin phosphotransferase Type I), read-out: Minimum Inhibitory Concentration
Source text: ^6 produces gentamicin acetyltransferase Type I and neomycin-kanamyci

[10] = system: Shigella sonnei ATCC 9290; assay: microbe, parasite or virus in culture; type: cell-based; settings: ATCC9290, agar dilution, pH 8.0, read-out: minimum Inhibitory Concentration
[11] = system: Pseudomonas aeruginosa BMH 1; assay: MIC, agar dilution method at pH 8.0; type: cell-based; settings: BMH1, read-out: minimum Inhibitory Concentration
[12] = system: Proteus vulgaris ATCC 6897; assay: microbe, parasite or virus in culture; type: cell-based; settings: ATCC6897, pH 8, read-out: minimum Inhibitory Concentration
Escherichia coli KY 8321 = assay: MIC, agar dilution method at pH 7.2; type: cell-based; settings: KY8321, Escherichia coli KY 8321 (gentamicin adenyltransferase and neomycin-kanamycin phosphotransferase Type II), read-out: Minimum Inhibitory Concentration
Source text: ^2 produces gentamicin adenyltransferase and neomycin-kanamycin
phosphotransferase Type II

[13] = system: Klebsiella pneumoniae ATCC 10031; assay: MIC, agar dilution method at pH 8.0; type: cell-based; settings: ATCC10031, pH 8, read-out: minimum Inhibitory Concentration
[14] = system: Bacillus subtilis No. 10707; assay: MIC, agar dilution method at pH 8.0; type: cell-based
Proteus vulgaris 6897 = assay: MIC, agar dilution method at pH 7.2; type: cell-based
Source text: as §1

[15] = system: Klebsiella pneumoniae No. 8045; assay: MIC, agar dilution method at pH 7.2; type: cell-based; settings: read-out: Minimum Inhibitory Concentration
Source text: as §1

[16] = system: Staphylococcus aureus 209 P; assay: MIC, agar dilution method at pH 7.2; type: cell-based; settings: read-out: Minimum Inhibitory Concentration
Source text: as §1

[17] = system: Bacillus subtilis ATCC 6633; assay: MIC, agar dilution method at pH 7.2; type: cell-based; settings: ATCC6633, read-out: Minimum Inhibitory Concentration
Source text: as §1

[18] = system: Pseudomonas aeruginosa BMH 1; assay: MIC, agar dilution method at pH 7.2; type: cell-based; settings: BMH1, read-out: Minimum Inhibitory Concentration
Source text: as §1

Escherichia coli T-2 = assay: MIC, agar dilution method at pH 7.2; type: cell-based; settings: T2, read-out: Minimum Inhibitory Concentration
Source text: as §1

Proteus mirabilis 1287 = assay: MIC, agar dilution method at pH 7.2; type: cell-based; settings: read-out: Minimum Inhibitory Concentration
Source text: as §1

[19] = in water and methanol; cited from earlier work
[20] = system: Staphylococus aureus Smith; assay: MIC, agar dilution method at pH 7.2; type: cell-based
Source text: as §1

Proteus rettgeri KY 4288 = assay: MIC, agar dilution method at pH 7.2; type: cell-based; settings: Providencia rettgeri, KY4288, pH 7.2, read-out: Minimum Inhibitory Concentration
[21] = system: Pseudomonas aeruginosa KY 8516; assay: MIC, agar dilution method at pH 7.2; type: cell-based; settings: KY8516, Pseudomonas aeruginosa KY 8516 (probably kanamycin acetyltransferase), read-out: Minimum Inhibitory Concentration
Sarcina lutea ATCC 9341 = assay: MIC, agar dilution method at pH 7.2; type: cell-based; settings: Micrococcus luteus, ATCC9341, read-out: Minimum Inhibitory Concentration
Source text: as §1

Proteus morganii KY 4298 = assay: MIC, agar dilution method at pH 7.2; type: cell-based; settings: Morganella morganii, KY4298, pH 7.2, read-out: Minimum Inhibitory Concentration
Source text: as §1

Escherichia coli T-5 = assay: MIC, agar dilution method at pH 7.2; type: cell-based; settings: T5, read-out: Minimum Inhibitory Concentration
Source text: as §1

[22] = Staphylococcus aureus, pH 8, read-out: minimum Inhibitory Concentration
[23] = Bacillus subtilis, NO.10707, pH 8, read-out: minimum Inhibitory Concentration
[24] = Proteus vulgaris 6897, agar dilution, pH 7.2, read-out: Minimum Inhibitory Concentration
[25] = Staphylococcus aureus ATC 6538P, agar dilution, pH 8.0, read-out: minimum Inhibitory Concentration
[26] = Bacillus subtilis No. 10707, agar dilution, pH 8.0, read-out: minimum Inhibitory Concentration
[27] = Staphylococus aureus Smith, agar dilution, pH 7.2, read-out: Minimum Inhibitory Concentration

SMILES	MIC (Escherichia coli KY 8327 [1]) [µg/mL]	MIC [2] [µg/mL]	MIC (Escherichia coli KY 8348 [4]) [µg/mL]	MIC (Escherichia coli KY 8327 [5]) [µg/mL]	MIC (Escherichia coli KY 8348 [6]) [µg/mL]	MIC (Escherichia coli KY 8349) [µg/mL]	MIC [7] [µg/mL]	MIC (Escherichia coli ATC 26) [µg/mL]	MIC [8] [µg/mL]	MIC (Providencia sp. 164) [µg/mL]	MIC [9] [µg/mL]	MIC [10] [µg/mL]	MIC [11] [µg/mL]	MIC [12] [µg/mL]	MIC (Escherichia coli KY 8321) [µg/mL]	MIC [13] [µg/mL]	MIC [15] [µg/mL]	MIC [16] [µg/mL]	MIC [17] [µg/mL]	MIC [18] [µg/mL]	also measured
CNCC1CCC(N)C(OC2C(N)CC(NC(=O)[C@H](O)CN)C(OC3OCC(C)(O)C(NC)C3O)C2O)O1 (stereo partly drawn) [D-form]	0.2 (≈ 0.363 µM)	1.56 (≈ 2.83 µM)	0.004 (≈ 0.00726 µM)	0.004 (≈ 0.00726 µM)	0.2 (≈ 0.363 µM)	0.2 (≈ 0.363 µM)	0.004 (≈ 0.00726 µM)	0.004 (≈ 0.00726 µM)	3.12 (≈ 5.67 µM)	6.25 (≈ 11.4 µM)	3.12 (≈ 5.67 µM)	0.008 (≈ 0.0145 µM)	2.08 (≈ 3.78 µM)	0.033 (≈ 0.0599 µM)	0.2 (≈ 0.363 µM)	0.004 (≈ 0.00726 µM)	0.2 (≈ 0.363 µM)	0.05 (≈ 0.0908 µM)	0.05 (≈ 0.0908 µM)	1.56 (≈ 2.83 µM)	MIC [3, 22]: 0.004 µg/mL (≈ 0.00726 µM); MIC [14, 23]: 0.004 µg/mL (≈ 0.00726 µM); MIC (Proteus vulgaris 6897; [24]): 0.78 µg/mL (≈ 1.42 µM); MIC (Escherichia coli T-2): 0.2 µg/mL (≈ 0.363 µM); MIC (Proteus mirabilis 1287): 3.12 µg/mL (≈ 5.67 µM)
CNC[C@@H]1CC[C@@H](N)[C@@H](O[C@H]2[C@H](O)[C@@H](O[C@H]3OC[C@](C)(O)[C@H](NC)[C@H]3O)[C@H](N)C[C@@H]2N)O1 [XK-62-2, reference compound]	–	–	–	–	–	–	–	–	–	–	–	–	–	–	–	–	–	–	–	–	MIC [3, 25]: 0.008 µg/mL (≈ 0.0173 µM); solubility [19]: freely soluble; MIC [14, 26]: 0.004 µg/mL (≈ 0.00863 µM); MIC [20, 27]: < 0.05 µg/mL
CNCC1CCC(N)C(OC2C(N)CC(NC(=O)[C@@H](O)CN)C(OC3OCC(C)(O)C(NC)C3O)C2O)O1 (stereo partly drawn) [L-form]	0.2 (≈ 0.363 µM)	0.78 (≈ 1.42 µM)	0.004 (≈ 0.00726 µM)	0.004 (≈ 0.00726 µM)	0.2 (≈ 0.363 µM)	0.2 (≈ 0.363 µM)	0.004 (≈ 0.00726 µM)	0.004 (≈ 0.00726 µM)	3.12 (≈ 5.67 µM)	6.25 (≈ 11.4 µM)	3.12 (≈ 5.67 µM)	0.008 (≈ 0.0145 µM)	1.04 (≈ 1.89 µM)	0.033 (≈ 0.0599 µM)	0.4 (≈ 0.726 µM)	0.004 (≈ 0.00726 µM)	0.2 (≈ 0.363 µM)	0.05 (≈ 0.0908 µM)	0.05 (≈ 0.0908 µM)	1.56 (≈ 2.83 µM)	MIC [3, 22]: 0.004 µg/mL (≈ 0.00726 µM); MIC [14, 23]: 0.004 µg/mL (≈ 0.00726 µM); MIC (Proteus vulgaris 6897; [24]): 1.56 µg/mL (≈ 2.83 µM); MIC (Proteus mirabilis 1287): 3.12 µg/mL (≈ 5.67 µM)
NC[C@H]1O[C@H](O[C@H]2[C@H](O)[C@@H](O[C@H]3O[C@H](CO)[C@@H](O)[C@H](N)[C@H]3O)[C@H](N)C[C@@H]2N)[C@H](O)[C@@H](O)[C@@H]1O [Kanamycin A, kanamycin A, reference compound]	–	–	–	–	–	–	0.08 (≈ 0.165 µM)	–	–	–	–	–	–	–	–	–	–	–	–	–	MIC ([20]; pH 7.2, read-out: Minimum Inhibitory Concentration): 0.2 µg/mL (≈ 0.413 µM)
CNCC1CCC(N)C(OC2C(N)CC(NC(=O)C(O)CN)C(OC3OCC(C)(O)C(NC)C3O)C2O)O1 (racemic) [DL-form]	0.4 (≈ 0.726 µM)	0.78 (≈ 1.42 µM)	0.004 (≈ 0.00726 µM)	0.004 (≈ 0.00726 µM)	0.2 (≈ 0.363 µM)	0.2 (≈ 0.363 µM)	0.004 (≈ 0.00726 µM)	0.008 (≈ 0.0145 µM)	3.12 (≈ 5.67 µM)	12.5 (≈ 22.7 µM)	3.12 (≈ 5.67 µM)	0.016 (≈ 0.0291 µM)	1.04 (≈ 1.89 µM)	0.033 (≈ 0.0599 µM)	0.2 (≈ 0.363 µM)	0.033 (≈ 0.0599 µM)	0.2 (≈ 0.363 µM)	0.1 (≈ 0.182 µM)	0.1 (≈ 0.182 µM)	1.56 (≈ 2.83 µM)	MIC [3, 25]: 0.065 µg/mL (≈ 0.118 µM); MIC (Proteus rettgeri KY 4288): 0.78 µg/mL (≈ 1.42 µM); MIC [21]: 3.12 µg/mL (≈ 5.67 µM); MIC [14, 26]: 0.008 µg/mL (≈ 0.0145 µM); MIC (Proteus vulgaris 6897; Proteus vulgaris, 6897, pH 7.2, read-out: Minimum Inhibitory Concentration): 3.12 µg/mL (≈ 5.67 µM); MIC (Sarcina lutea ATCC 9341): 0.4 µg/mL (≈ 0.726 µM); MIC [20, 27]: 0.05 µg/mL (≈ 0.0908 µM); MIC (Proteus morganii KY 4298): 0.78 µg/mL (≈ 1.42 µM); MIC (Escherichia coli T-2): 0.4 µg/mL (≈ 0.726 µM); MIC (Escherichia coli T-5): 0.4 µg/mL (≈ 0.726 µM); MIC (Proteus mirabilis 1287): 3.12 µg/mL (≈ 5.67 µM)
